Experimental data published in ChEMBL document CHEMBL1614632, “Trend analysis of a database of intravenous pharmacokinetic parameters in humans for 670 drug compounds” (Drug Metab Dispos, 2008).

Legend:
clinical [1] = conditions: human, in vivo, iv, Vdss
clinical [2] = conditions: human, in vivo, iv, CL
clinical [3] = conditions: human, in vivo, iv
clinical [4] = conditions: human, in vivo, iv, t1/2

| SMILES | Vd (clinical [1]) [L/kg] | clearance (clinical [2]) [mL/min/kg] | MRT (clinical [3]) [h] | half-life (clinical [4]) [h] |
| --- | --- | --- | --- | --- |
| CN(C)C(=O)Oc1cccc([N+](C)(C)C)c1.[Br-] [NEOSTIGMINE BROMIDE] | 0.74 | 9.2 | 1.3 | 1.3 |
| Cc1ccnc2c1NC(=O)c1cccnc1N2C1CC1 [NEVIRAPINE] | 1.3 | 0.3 | 81 | 53 |
| COC(=O)C1=C(C)NC(C)=C(C(=O)OCC(C)C)C1c1ccccc1[N+](=O)[O-] (stereo not given) [NISOLDIPINE] | 5.5 | 15 | 6.5 | 11 |
| O=C1CN=C(c2ccccc2)c2cc([N+](=O)[O-])ccc2N1 [NITRAZEPAM] | 1.7 | 0.86 | 33 | 26 |
| CNC(=C[N+](=O)[O-])NCCSCc1csc(CN(C)C)n1 [NIZATIDINE] | 1 | 9.8 | 1.7 | 1.5 |
| CN1Cc2c(N)cccc2C(c2ccccc2)C1 (stereo not given) [NOMIFENSINE] | 6 | 22 | 4.5 | 6.5 |
| CCOC(=O)[C@]1(c2ccccc2)CCC=C[C@H]1NC [NORTILIDINE] | 2.5 | 9.9 | 4.2 | 4.4 |
| CNCCC=C1c2ccccc2CCc2ccccc21 [NORTRIPTYLINE] | 22 | 10 | 37 | 30 |
| CC1COc2c(N3CCN(C)CC3)c(F)cc3c(=O)c(C(=O)O)cn1c23 (stereo not given) [OFLOXACIN] | 1.6 | 2.5 | 11 | 8.9 |
| O=C(O)c1cc(/N=N/c2ccc(O)c(C(=O)O)c2)ccc1O [OLSALAZINE] | 0.07 | 1.2 | 0.97 | 0.9 |
| COc1ccc2[nH]c([S+]([O-])Cc3ncc(C)c(OC)c3C)nc2c1 (stereo not given) [OMEPRAZOLE] | 0.24 | 8.4 | 0.48 | 0.58 |
| Cc1nccn1CC1CCc2c(c3ccccc3n2C)C1=O (stereo not given) [ONDANSETRON] | 1.8 | 5.8 | 5.2 | 3.4 |
| CCC(CC)O[C@@H]1C=C(C(=O)O)C[C@H](N)[C@H]1NC(C)=O [OSELTAMIVIR CARBOXYLATE] | 0.37 | 4.8 | 1.3 | 1.8 |
| NC(=O)CN1CC(O)CC1=O (stereo not given) [OXIRACETAM] | 0.55 | 1.8 | 4.9 | 7.5 |
| COc1ccc(Cc2nccc3cc(OC)c(OC)cc23)cc1OC [PAPAVERINE] | 0.95 | 11 | 1.4 | 1.8 |
| C[C@H](/C=C/[C@H](C)C(C)(C)O)[C@H]1CC[C@H]2/C(=C/C=C3C[C@@H](O)C[C@H](O)C3)CCC[C@]12C [PARICALCITOL] | 0.41 | 0.89 | 7.7 | 5.3 |
| Nc1nc2c(ncn2CCC(CO)CO)c(=O)[nH]1 [PENCICLOVIR] | 1.1 | 8.4 | 2.4 | 2.1 |
| CC1(C)S[C@@H]2[C@H](NC(=O)COc3ccccc3)C(=O)N2[C@H]1C(=O)O [PENICILLIN V] | 0.41 | 6.8 | 1 | 0.84 |
| CC(=O)CCCCn1c(=O)c2c(ncn2C)n(C)c1=O [PENTOXIFYLLINE] | 1.8 | 39 | 0.77 | 1.2 |
| c1ccc(C2(N3CCCCC3)CCCCC2)cc1 [PHENCYCLIDINE] | 6.9 | 5.1 | 23 | 16 |
